Tested on: K562
Test: Induction of apoptosis in human K562 cells assessed as viable cells at 10 uM incubated for 48 hrs by Annexin V-FITC/PI staining based flow cytometry analysis (Rvb=80.89%)
Format: functional
Settings: read-out: Activity

SMILES: O=C(Nc1nc2ccc(-c3cn([C@@H]4CN[C@H](C(=O)Nc5ccc(Cl)cc5Cl)C4)nn3)nc2s1)C1CC1
- viability at 10 µM: 49.7%

Source: ChEMBL document CHEMBL5113400, “Design, synthesis, and biological evaluation of trizole-based heteroaromatic derivatives as Bcr-Abl kinase inhibitors” (Eur J Med Chem, 2022)
